pIC50: −log10 of the molar value.
Experiments:
[1] = Cytotoxicity against human SH-SY5Y cells assessed as cell viability at 30 uM after 24 hrs by MTT assay relative to control; format: cell-based; details: read-out: Activity
[2] = target: Vascular endothelial growth factor receptor 1 (Homo sapiens) (UniProt P17948); experiment: Inhibition of VEGFR1 (unknown origin) at 0.5 uM relative to control
[3] = target: Protein kinase C alpha type (Homo sapiens) (UniProt P17252); experiment: Inhibition of PKCalpha (unknown origin) at 0.5 uM relative to control
[4] = target: Glycogen synthase kinase-3 beta (Homo sapiens) (UniProt P49841); experiment: Inhibition of GSK3beta (unknown origin) at 0.5 uM relative to control
Sequence of Glycogen synthase kinase-3 beta (Homo sapiens) (P49841 whole entry, looked up): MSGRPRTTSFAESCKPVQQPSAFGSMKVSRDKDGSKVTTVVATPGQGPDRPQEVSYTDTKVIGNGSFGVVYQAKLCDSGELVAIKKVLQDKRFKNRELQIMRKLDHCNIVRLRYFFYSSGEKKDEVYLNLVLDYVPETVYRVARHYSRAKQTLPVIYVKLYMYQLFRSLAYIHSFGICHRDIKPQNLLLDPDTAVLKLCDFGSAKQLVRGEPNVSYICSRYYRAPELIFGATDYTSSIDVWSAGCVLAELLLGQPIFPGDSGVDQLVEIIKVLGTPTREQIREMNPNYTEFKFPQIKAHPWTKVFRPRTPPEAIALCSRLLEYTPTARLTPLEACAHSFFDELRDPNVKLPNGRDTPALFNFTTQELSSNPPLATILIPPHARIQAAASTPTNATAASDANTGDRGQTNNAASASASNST

[5] = target: RAC-beta serine/threonine-protein kinase (Homo sapiens) (UniProt P31751); experiment: Inhibition of PKBbeta (unknown origin) at 0.5 uM relative to control
Sequence of RAC-beta serine/threonine-protein kinase (Homo sapiens) (P31751 whole entry): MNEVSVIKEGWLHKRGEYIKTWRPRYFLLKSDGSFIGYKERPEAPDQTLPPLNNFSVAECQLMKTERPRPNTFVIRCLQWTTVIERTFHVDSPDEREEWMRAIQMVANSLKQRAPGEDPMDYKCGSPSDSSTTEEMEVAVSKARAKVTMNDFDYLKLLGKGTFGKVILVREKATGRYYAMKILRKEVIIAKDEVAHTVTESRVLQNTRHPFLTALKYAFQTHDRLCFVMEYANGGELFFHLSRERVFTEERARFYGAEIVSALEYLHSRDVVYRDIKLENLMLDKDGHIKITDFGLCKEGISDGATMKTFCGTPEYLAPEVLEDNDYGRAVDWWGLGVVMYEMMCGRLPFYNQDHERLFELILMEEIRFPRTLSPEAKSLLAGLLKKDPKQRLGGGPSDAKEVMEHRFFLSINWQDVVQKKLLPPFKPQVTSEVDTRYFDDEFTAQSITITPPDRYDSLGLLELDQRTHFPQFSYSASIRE

[6] = target: Aurora kinase B (Homo sapiens) (UniProt Q96GD4); experiment: Inhibition of Aurora B (unknown origin) at 0.5 uM relative to control
Sequence of Aurora kinase B (Homo sapiens) (Q96GD4 whole entry): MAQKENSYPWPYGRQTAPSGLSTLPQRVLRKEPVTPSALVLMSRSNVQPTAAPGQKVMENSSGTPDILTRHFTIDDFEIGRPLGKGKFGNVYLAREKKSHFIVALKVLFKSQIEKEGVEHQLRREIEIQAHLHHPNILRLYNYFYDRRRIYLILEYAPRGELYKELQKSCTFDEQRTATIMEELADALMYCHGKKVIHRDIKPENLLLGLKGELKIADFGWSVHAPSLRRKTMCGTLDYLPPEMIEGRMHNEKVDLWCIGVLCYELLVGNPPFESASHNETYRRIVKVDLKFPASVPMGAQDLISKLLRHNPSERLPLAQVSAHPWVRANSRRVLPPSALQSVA

[7] = target: Cyclin-dependent kinase 2 (Homo sapiens) (UniProt P24941); experiment: Inhibition of CDK2 (unknown origin) at 0.5 uM relative to control
[8] = target: Insulin-like growth factor 1 receptor (Homo sapiens) (UniProt P08069); experiment: Inhibition of IGF-1R (unknown origin) at 0.5 uM relative to control
[9] = target: RAC-alpha serine/threonine-protein kinase (Homo sapiens) (UniProt P31749); experiment: Inhibition of PKBalpha (unknown origin) at 0.5 uM relative to control
Sequence of RAC-alpha serine/threonine-protein kinase (Homo sapiens) (P31749 whole entry): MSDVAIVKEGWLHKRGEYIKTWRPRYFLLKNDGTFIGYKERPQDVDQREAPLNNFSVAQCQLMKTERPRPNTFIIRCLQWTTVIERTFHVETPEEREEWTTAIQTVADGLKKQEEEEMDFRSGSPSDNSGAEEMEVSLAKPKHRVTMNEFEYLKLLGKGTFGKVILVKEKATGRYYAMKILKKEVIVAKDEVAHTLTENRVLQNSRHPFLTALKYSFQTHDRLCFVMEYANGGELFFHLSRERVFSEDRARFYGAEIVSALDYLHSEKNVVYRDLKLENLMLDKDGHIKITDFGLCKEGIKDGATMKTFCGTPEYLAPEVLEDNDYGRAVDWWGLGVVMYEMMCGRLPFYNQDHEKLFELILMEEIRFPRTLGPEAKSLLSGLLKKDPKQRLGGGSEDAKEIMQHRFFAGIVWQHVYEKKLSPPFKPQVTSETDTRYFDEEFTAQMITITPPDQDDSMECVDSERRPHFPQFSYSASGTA

[10] = target: T1, Inhibitor of nuclear factor kappa-B kinase subunit beta (Homo sapiens) (UniProt O14920); experiment: Inhibition of IKKbeta (unknown origin) at 0.5 uM relative to control
T1 sequence (whole entry): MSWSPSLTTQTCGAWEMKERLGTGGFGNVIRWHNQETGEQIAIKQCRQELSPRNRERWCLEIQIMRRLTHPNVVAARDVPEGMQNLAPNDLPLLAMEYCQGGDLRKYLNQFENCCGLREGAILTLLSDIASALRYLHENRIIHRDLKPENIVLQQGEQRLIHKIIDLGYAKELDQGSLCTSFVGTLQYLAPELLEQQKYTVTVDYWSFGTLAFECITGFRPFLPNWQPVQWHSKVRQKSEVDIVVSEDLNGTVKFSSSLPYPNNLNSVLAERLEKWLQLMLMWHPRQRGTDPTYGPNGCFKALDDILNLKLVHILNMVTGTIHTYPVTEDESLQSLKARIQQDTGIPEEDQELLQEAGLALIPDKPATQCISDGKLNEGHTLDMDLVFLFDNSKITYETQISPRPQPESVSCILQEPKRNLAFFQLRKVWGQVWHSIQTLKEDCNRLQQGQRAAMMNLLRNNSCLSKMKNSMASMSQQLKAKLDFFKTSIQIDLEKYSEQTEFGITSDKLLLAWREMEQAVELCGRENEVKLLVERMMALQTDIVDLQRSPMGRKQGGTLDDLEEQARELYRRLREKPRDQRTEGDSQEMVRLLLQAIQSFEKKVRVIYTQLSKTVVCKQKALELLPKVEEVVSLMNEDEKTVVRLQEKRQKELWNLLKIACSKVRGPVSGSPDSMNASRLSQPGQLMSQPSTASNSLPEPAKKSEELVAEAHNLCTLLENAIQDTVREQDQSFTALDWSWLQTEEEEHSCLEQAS

[11] = target: T2, Aurora kinase A (Homo sapiens) (UniProt O14965); experiment: Inhibition of Aurora A (unknown origin) at 0.5 uM relative to control
T2 sequence (whole entry): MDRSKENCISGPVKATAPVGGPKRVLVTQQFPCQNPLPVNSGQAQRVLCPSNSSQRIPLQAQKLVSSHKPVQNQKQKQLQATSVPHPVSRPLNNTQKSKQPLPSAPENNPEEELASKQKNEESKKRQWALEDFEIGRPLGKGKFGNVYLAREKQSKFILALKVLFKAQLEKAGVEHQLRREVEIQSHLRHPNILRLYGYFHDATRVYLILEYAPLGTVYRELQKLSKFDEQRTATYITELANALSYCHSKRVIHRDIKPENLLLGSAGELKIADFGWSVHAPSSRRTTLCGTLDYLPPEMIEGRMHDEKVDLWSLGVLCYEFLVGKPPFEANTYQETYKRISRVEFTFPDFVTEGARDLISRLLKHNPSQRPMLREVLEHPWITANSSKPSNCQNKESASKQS

[12] = target: Tyrosine-protein kinase ABL1 (Homo sapiens) (UniProt P00519); experiment: Inhibition of Abl (unknown origin) at 0.5 uM relative to control
Sequence of Tyrosine-protein kinase ABL1 (Homo sapiens) (P00519 whole entry, canonical isoform): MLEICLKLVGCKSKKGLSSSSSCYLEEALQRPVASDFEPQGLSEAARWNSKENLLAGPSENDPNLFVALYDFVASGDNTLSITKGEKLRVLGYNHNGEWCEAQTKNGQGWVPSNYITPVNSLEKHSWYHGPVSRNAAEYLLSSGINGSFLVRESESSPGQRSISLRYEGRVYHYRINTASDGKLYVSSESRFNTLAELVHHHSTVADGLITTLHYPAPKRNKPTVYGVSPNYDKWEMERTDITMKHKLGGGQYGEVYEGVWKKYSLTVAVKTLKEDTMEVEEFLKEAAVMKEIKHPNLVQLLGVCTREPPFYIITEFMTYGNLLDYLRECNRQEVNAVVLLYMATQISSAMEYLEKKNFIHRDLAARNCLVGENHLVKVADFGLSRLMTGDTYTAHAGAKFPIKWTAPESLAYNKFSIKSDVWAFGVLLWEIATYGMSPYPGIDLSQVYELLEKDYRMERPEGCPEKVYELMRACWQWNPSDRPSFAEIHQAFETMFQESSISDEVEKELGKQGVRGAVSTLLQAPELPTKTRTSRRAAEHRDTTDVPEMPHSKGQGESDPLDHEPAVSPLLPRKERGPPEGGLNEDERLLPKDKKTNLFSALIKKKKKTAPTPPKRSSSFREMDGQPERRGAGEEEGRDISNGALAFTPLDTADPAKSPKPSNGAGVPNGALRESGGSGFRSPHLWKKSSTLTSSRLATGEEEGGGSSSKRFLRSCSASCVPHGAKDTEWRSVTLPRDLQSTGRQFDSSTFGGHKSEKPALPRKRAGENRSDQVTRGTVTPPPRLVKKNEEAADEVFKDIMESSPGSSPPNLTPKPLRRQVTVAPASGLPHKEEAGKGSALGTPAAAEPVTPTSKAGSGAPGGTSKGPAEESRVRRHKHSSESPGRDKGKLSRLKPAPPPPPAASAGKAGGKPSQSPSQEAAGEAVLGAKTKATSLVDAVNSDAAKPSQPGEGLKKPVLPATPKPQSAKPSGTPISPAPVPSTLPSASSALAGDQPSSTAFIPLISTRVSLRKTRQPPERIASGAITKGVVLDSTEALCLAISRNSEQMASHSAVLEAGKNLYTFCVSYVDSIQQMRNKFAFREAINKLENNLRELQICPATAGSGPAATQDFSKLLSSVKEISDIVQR

[13] = target: Casein kinase I isoform alpha (Homo sapiens) (UniProt P48729); experiment: Inhibition of CK1 (unknown origin) at 0.5 uM relative to control
Sequence of Casein kinase I isoform alpha (Homo sapiens) (P48729 2-337 limits assumed): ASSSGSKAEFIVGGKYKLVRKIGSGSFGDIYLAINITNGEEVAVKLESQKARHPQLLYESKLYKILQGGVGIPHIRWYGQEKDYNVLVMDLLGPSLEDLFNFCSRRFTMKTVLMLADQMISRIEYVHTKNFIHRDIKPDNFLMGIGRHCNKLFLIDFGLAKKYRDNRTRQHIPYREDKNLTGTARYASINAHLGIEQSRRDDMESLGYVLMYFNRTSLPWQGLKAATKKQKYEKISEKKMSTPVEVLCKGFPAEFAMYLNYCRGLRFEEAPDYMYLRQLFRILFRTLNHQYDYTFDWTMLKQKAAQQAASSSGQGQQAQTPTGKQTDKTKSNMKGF

[14] = target: AMP-activated protein kinase, AMPK (Homo sapiens) (UniProt P54646+O43741+P54619+Q9UGJ0+Q9Y478+Q13131+Q9UGI9); experiment: Inhibition of AMPK (unknown origin) at 0.5 uM relative to control; format: protein-complex assay
[15] = target: Insulin receptor (Homo sapiens) (UniProt P06213); experiment: Inhibition of IR (unknown origin) at 0.5 uM relative to control
[16] = target: Cyclin-dependent kinase 9 (Homo sapiens) (UniProt P50750); experiment: Inhibition of CDK9 (unknown origin) at 0.5 uM relative to control
Sequence of Cyclin-dependent kinase 9 (Homo sapiens) (P50750 whole entry): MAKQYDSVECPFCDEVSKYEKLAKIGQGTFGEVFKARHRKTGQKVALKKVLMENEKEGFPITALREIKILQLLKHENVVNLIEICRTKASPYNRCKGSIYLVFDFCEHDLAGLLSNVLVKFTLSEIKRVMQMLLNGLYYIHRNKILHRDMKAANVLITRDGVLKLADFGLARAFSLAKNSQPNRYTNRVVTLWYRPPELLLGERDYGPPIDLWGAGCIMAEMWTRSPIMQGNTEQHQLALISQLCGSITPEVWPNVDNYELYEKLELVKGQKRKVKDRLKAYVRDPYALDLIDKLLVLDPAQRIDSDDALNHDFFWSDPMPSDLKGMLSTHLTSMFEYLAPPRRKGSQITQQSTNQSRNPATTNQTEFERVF

SH-SY5Y [17] = experiment: cells; details: Homo sapiens, 24 h
SH-SY5Y [18] = experiment: Neuroprotective activity against glutamate-induced neurotoxicity in human SH-SY5Y cells assessed as cell viability at 50 uM incubated for 30 mins prior to glutamate challenge measured after 24 hrs by MTT assay (reference value: 73.8 +/- 4.5%); format: functional; details: read-out: Activity
SH-SY5Y [19] = experiment: Neuroprotective activity against glutamate-induced neurotoxicity in human SH-SY5Y cells assessed as cell viability at 10 uM incubated for 30 mins prior to glutamate challenge measured after 24 hrs by MTT assay (reference value: 73.8 +/- 4.5%); format: functional; details: read-out: Activity

Row | SMILES | viability at 24 h, 30 µM [1] | also measured
1 | COc1ccc(Br)cc1S(=O)(=O)n1cc(-c2ccnc(N)n2)c2ccccc21 | 96.2% | 
2 | Nc1nccc(-c2cn(S(=O)(=O)c3ccc(Cl)cc3Cl)c3ccccc23)n1 | 55.4% | 
3 | Nc1nccc(-c2cn(S(=O)(=O)c3ccc4ccccc4c3)c3ccccc23)n1 | 61.6% | 
4 | Nc1nccc(-c2cn(S(=O)(=O)c3ccc4c(c3)OCCO4)c3ccccc23)n1 | 59.4% | 
5 | Cc1noc(C)c1Cn1cc(-c2ccnc(N)n2)c2cc(Br)ccc21 | 83.1% | 
6 | Nc1nccc(-c2cn(Cc3ccc(Cl)s3)c3ccccc23)n1 | 115% | 
7 | Cc1cc(C)c(S(=O)(=O)n2cc(-c3ccnc(N)n3)c3cc(Br)ccc32)c(C)c1 | 109% | 
8 | CC(=O)Nc1ccc(S(=O)(=O)n2cc(-c3ccnc(N)n3)c3cc(Br)ccc32)cc1 | 71.6% | 
9 | COc1ccc(S(=O)(=O)n2cc(-c3ccnc(N)n3)c3ccccc32)cc1 | 58.8% | 
10 | Nc1nccc(-c2cn(Cc3c4ccccc4cc4ccccc34)c3ccc(Br)cc23)n1 | 79.8% | 
11 | Nc1nccc(-c2cn(S(=O)(=O)c3ccc(I)cc3)c3ccccc23)n1 | 57.5% | 
12 | COc1cccc(C(=O)n2cc(-c3ccnc(N)n3)c3ccccc32)c1 | 94.6% | 
13 | O=C1NC(c2c[nH]c3ccc(Br)cc23)Nc2ccccc21 (stereo not given) | 41.5% | 
14 | CC(C)(C)c1ccc(S(=O)(=O)n2cc(-c3ccnc(N)n3)c3cc(Br)ccc32)cc1 | 109% | 
15 | Nc1nccc(-c2cn(S(=O)(=O)c3cccc(C(F)(F)F)c3)c3ccccc23)n1 | 76.1% | 
16 | Nc1nccc(-c2cn(S(=O)(=O)c3ccc(C(F)(F)F)cc3)c3ccc(Br)cc23)n1 | 85% | 
17 | COc1ccc(S(=O)(=O)n2cc(-c3ccnc(N)n3)c3cc(Br)ccc32)cc1 | 99% | 
18 | Cc1cc(C)c(S(=O)(=O)n2cc(-c3ccnc(N)n3)c3ccccc32)c(C)c1 | 40% | 
19 | Nc1nccc(-c2cn(S(=O)(=O)c3cc(C(F)(F)F)cc(C(F)(F)F)c3)c3ccc(Br)cc23)n1 | 76.4% | 
20 | O=C1NC(c2c[nH]c3ccccc23)Nc2ccccc21 (stereo not given) | 83.1% | 
21 | Nc1nccc(-c2cn(Cc3c4ccccc4cc4ccccc34)c3ccccc23)n1 | 96% | 
22 | Cc1noc(C)c1Cn1cc(-c2ccnc(N)n2)c2ccccc21 | 88.5% | inhibition [2]: 13.5%; inhibition [3]: 36.9%; inhibition [4]: 6.1%; inhibition [5]: 0%; inhibition [6]: 10.1%; inhibition [7]: 0%; inhibition [8]: 0%; inhibition [9]: 10.9%; inhibition [10]: 3%; inhibition [11]: 0%; inhibition [12]: 6.3%; inhibition [13]: 22.7%; inhibition [14]: 9.5%; inhibition [15]: 17.7%; inhibition [16]: 14%
23 | Nc1nccc(-c2cn(C(=O)N3CCOCC3)c3ccccc23)n1 | 97.3% | 
24 | Nc1nccc(-c2cn(S(=O)(=O)c3ccc4c(c3)OCCO4)c3ccc(Br)cc23)n1 | 112% | 
25 | Nc1nccc(-c2cn(S(=O)(=O)c3ccc(C(F)(F)F)cc3)c3ccccc23)n1 | 95.6% | 
26 | Nc1nccc(-c2cn(C(=O)c3ccccc3)c3ccccc23)n1 | 106% | 

Row | SMILES | viability at 24 h, 30 µM [1] | also measured
27 | Cc1c(C)c(C)c(S(=O)(=O)n2cc(-c3ccnc(N)n3)c3ccccc32)c(C)c1C | 49% | 
28 | Nc1nccc(-c2cn(S(=O)(=O)c3ccc([N+](=O)[O-])cc3)c3ccc(Br)cc23)n1 | 59% | 
29 | Nc1nccc(-c2cn(S(=O)(=O)c3ccc(OC(F)(F)F)cc3)c3ccc(Br)cc23)n1 | 74% | 
30 | CN1CCN(C(=O)n2cc(-c3ccnc(N)n3)c3cc(Br)ccc32)CC1 | 91.8% | 
31 | Nc1nccc(-c2cn(CN3C(=O)c4ccccc4C3=O)c3ccccc23)n1 | 101% | 
32 | CC(C)(C)c1ccc(S(=O)(=O)n2cc(-c3ccnc(N)n3)c3ccccc32)cc1 | 86.3% | 
33 | Nc1nccc(-c2cn(Cc3ccc(Cl)s3)c3ccc(Br)cc23)n1 | 24% | 
34 | COCCn1cc(-c2ccnc(N)n2)c2cc(Br)ccc21 | 75.3% | 
35 | Nc1nccc(-c2c[nH]c3ccccc23)n1 | 91.4% | inhibition [2]: 8%; inhibition [3]: 8.5%; inhibition [4]: 0%; inhibition [5]: 0%; inhibition [6]: 4.1%; inhibition [7]: 0%; inhibition [8]: 0%; inhibition [9]: 22.3%; inhibition [10]: 16.6%; inhibition [11]: 5.1%; inhibition [12]: 7.1%; inhibition [13]: 0%; inhibition [14]: 0%; inhibition [15]: 9.6%; inhibition [16]: 3.8%
36 | Nc1nccc(-c2cn(S(=O)(=O)c3ccc(Br)cc3)c3ccccc23)n1 | 91.4% | 
37 | O=c1[nH]c(-c2c[nH]c3ccc(I)cc23)nc2ccccc12 | 24% | 
38 | Nc1nccc(-c2cn(S(=O)(=O)c3ccc(F)cc3F)c3ccccc23)n1 | 99.1% | 
39 | Nc1nccc(-c2cn(S(=O)(=O)c3ccc(C(F)(F)F)cc3[N+](=O)[O-])c3ccc(Br)cc23)n1 | 15.2% | pIC50 (SH-SY5Y [17]): 4.85
40 | CN1CCN(C(=O)n2cc(-c3ccnc(N)n3)c3ccccc32)CC1 | 82% | 
41 | N#Cc1ccc(S(=O)(=O)n2cc(-c3ccnc(N)n3)c3cc(Br)ccc32)cc1 | 106% | 
42 | Nc1nccc(-c2cn(S(=O)(=O)c3cc(C(F)(F)F)cc(C(F)(F)F)c3)c3ccccc23)n1 | 72.4% | 
43 | Nc1nccc(-c2cn(S(=O)(=O)c3ccc([N+](=O)[O-])cc3)c3ccccc23)n1 | 56% | 
44 | Cc1c(C)c(C)c(S(=O)(=O)n2cc(-c3ccnc(N)n3)c3cc(Br)ccc32)c(C)c1C | 107% | 
45 | Nc1nccc(-c2cn(S(=O)(=O)c3cccc(C(F)(F)F)c3)c3ccc(Br)cc23)n1 | 38.8% | 
46 | Nc1nccc(-c2cn(C(=O)c3ccccc3)c3ccc(Br)cc23)n1 | 65.1% | viability at 50 µM (SH-SY5Y [18]): 94.1%; pIC50 (SH-SY5Y [17]): < 4.00; viability at 10 µM (SH-SY5Y [19]): 93.2%
47 | Nc1nccc(-c2c[nH]c3ccc(Br)cc23)n1 [MERIDIANIN C] | 92.9% | 
48 | N#Cc1ccc(S(=O)(=O)n2cc(-c3ccnc(N)n3)c3ccccc32)cc1 | 110% | 
49 | Cc1ccsc1C(=O)n1cc(-c2ccnc(N)n2)c2ccccc21 | 82% | 
50 | COc1ccc(S(=O)(=O)n2cc(-c3ccnc(N)n3)c3ccccc32)cc1OC | 127% | 
51 | CCOc1ccccc1C(=O)n1cc(-c2ccnc(N)n2)c2ccccc21 | 46.6% | 

Reference: ChEMBL document CHEMBL3596148, “Meridianin derivatives as potent Dyrk1A inhibitors and neuroprotective agents” (Bioorg Med Chem Lett, 2015)
